Values quoted from earlier work in patent US7825135B2, “Heteroaryl piperidine glycine transporter inhibitors” (Merck Sharp & Dohme Limited, priority 2004, dated 2010).

Columns and labels:
[1] = schizophrenia patients poorly responsive to antipsychotic drugs
[2] = high doses, oral, add-on to standard neuroleptic therapy
[3] = system: NMDA receptor; settings: rat; blockade of GlyT1
[4] = mice

Structure (SMILES): CNCC(=O)O [sarcosine]
- effect on positive, negative and cognitive symptoms [1]: beneficial effect

Structure (SMILES): NCC(=O)O [glycine]
- effect on symptoms of schizophrenia patients [2]: improvement of the symptoms

Structure (SMILES): CN(CCC(Oc1ccc(-c2ccccc2)cc1)c1ccc(F)cc1)CC(=O)O (stereo not shown) [NFPS]
- effect on NMDA receptor activity and NMDA receptor-dependent long-term potentiation [3]: potentiates NMDA receptor activity and NMDA receptor-dependent long-term potentiation
- effect on pre-pulse inhibition (sensory gating) [4]: enhance pre-pulse inhibition
